Columns and labels:
NIH Swiss mice [1] = assay: Core body temperature by biotelemetry (cannabinoid tetrad, hypothermia); format: in vivo, mouse
Procedure: Prior to surgery (see below), male NIH Swiss mice (Harlan Sprague Dawley Inc., Indianapolis, Ind.), weighing approximately 25-30 g, were housed 3 animals per Plexiglas® cage (15.24×25.40×12.70 cm) in a temperature-controlled room in an Association for Assessment and Accreditation of Laboratory Animal Care (AAALAC) accredited animal facility at the University of Arkansas for Medical Sciences. Room conditions were maintained at 22±2° C. and 45-50% humidity. Lights were set to a 12-h light/dark cycle. Animals were fed Lab Diet rodent chow (Laboratory Rodent Diet #5001, PMI Feeds, Inc., St. Louis, Mo.) and water ad libitum throughout testing Animals were acclimated to the laboratory environment for ˜7 days prior to experiments, and to the biotelemetry chambers for at least 2 hours prior to initiation of data acquisition. All test conditions used groups of 5 or 6 mice, and all mice were drug-naïve (with the exception of surgical anesthetics) prior to testing.
Cannabinoid effects on core temperature and locomotor activity were measured using surgically-implanted biotelemetry probes. Following appropriate anesthetization with ketamine (100 mg/kg, intraperitoneal [i.p.]) and xylazine (10 mg/kg, i.p.), the abdominal area of each mouse was shaved and sanitized with iodine swabs. A rostral-caudal cut approximately 1.5 cm in length was made with skin scissors, providing access to the intraperitoneal cavity. A cylindrical glass-encapsulated radiotelemetry probe (model ER-4000 E-Mitter, Mini Mitter Co., Inc., Bend, Oreg.) was then inserted, and the incision was closed using absorbable 5-0 chromic gut suture material. At least 7 days were imposed between surgery and experimental observation of cannabinoid effects to allow incisions to heal and mice to recover normal body weights. Following surgery, implanted mice were individually housed in Plexiglas® mouse cages (15.24×25.40×12.70 cm) for the duration of all temperature and locomotor activity experiments Implanted transmitters produced activity- and temperature-modulated signals that were transmitted to a receiver (model ER-4000 Receiver, Mini Mitter Co., Inc., Bend, Oreg.) underneath each mouse cage. Receivers were housed in light- and sound-attenuating cubicles (Med Associates model ENV-022MD, St. Albans, Vt.) equipped with exhaust fans, which further masked ambient laboratory noise. On experimental days, mice were weighed, marked, and returned to their individual cages during which at least 1 hr of baseline data were collected. […]. Mice were then placed into a new cage with fresh bedding to stimulate exploratory behavior. Temperature and locomotor activity data were collected at regular 5-min intervals and processed simultaneously by the Vital View data acquisition system (Mini Mitter Co., Inc., Bend, Oreg.) for at least 10 hrs.
For core body temperature experiments, the area under the curve (AUC) was calculated using a trapezoidal rule from 0-500 minutes, and statistical significance (P<0.05) was determined using a one-way ANOVA, followed by Tukey's HSD post-hoc test. For locomotor activity, total locomotor counts were summed from 0-800 minutes. Because locomotor, analgesia and catalepsy data were not normally distributed, Kruskal-Wallis one-way ANOVA on ranks were performed, and all pair-wise comparisons were then made using the Tukey's HSD tests. In vivo statistical calculations were performed using SigmaStat 3 (Systat Software, Inc., San Jose, Calif.).

NIH Swiss mice [2] = assay: Analgesia, tail-flick latency; format: in vivo, mouse; conditions: M4 10 mg/kg i.p. + JWH-018 3 mg/kg i.p.
hCB2Rs = hCB2Rs (Homo sapiens (Human), UniProt P34972); assay: Inhibition of forskolin-stimulated cAMP production (adenylyl cyclase) in intact CHO-hCB2R cells; format: cell-based
Procedure: Adenylyl cyclases are a family of membrane-bound enzymes that catalyze the intracellular production of the second messenger cAMP from ATP. Adenylyl cyclase activity is modulated by activated G-proteins: Gs-proteins stimulate activity, while Gi/o-proteins are inhibitory. Thus, agonists of G-protein coupled receptors (GPCRs) coupled to Gi/o-proteins, such as hCB2Rs, decrease cAMP production due to inhibition of adenylyl cyclase activity. In this assay, intact CHO-hCB2R cells are preincubated with [^3H]-adenine and treated with forskolin (10 or 30 μM) to stimulate adenylyl cyclase activity.
A functional assay screen for the inhibition of adenylate cyclase (AC) activity was chosen as the subsequent assay. […] Reaching full-receptor occupancy, which is predicted to produce maximal efficacy, is desirable at 10 μM concentration of all the compounds was used.

NIH Swiss mice [3] = assay: Locomotor activity by biotelemetry (cannabinoid tetrad); format: in vivo, mouse; conditions: M4 10 mg/kg i.p. + JWH-018 3 mg/kg i.p.
NIH Swiss mice [4] = assay: Catalepsy, horizontal bar test; format: in vivo, mouse; conditions: M4 10 mg/kg i.p. + JWH-018 3 mg/kg i.p.
[5] = tested on: mice trained to discriminate THC; assay: THC drug discrimination (generalization of JWH-018 to THC); format: in vivo, mouse; conditions: M4 10 mg/kg i.p. + JWH-018 1 mg/kg; training dose THC 10 mg/kg i.p.
[6] = biological target: CB1Rs endogenously expressed in Neuro2A cells (Mus musculus (Mouse), UniProt P47746); assay: Adenylyl cyclase (AC) inhibition via CB1Rs endogenously expressed in Neuro2A cells; format: cell-based
mice = assay: Thermoregulation assay, antagonism of JWH-073-induced hypothermia; format: in vivo, mouse; conditions: 10 mg/kg
Text: Our hypothesis is that a dual activity CB1R antagonist/CB2R agonist will reduce the reinforcing effects of EtOH as well as reduce the conditioned rewarding effects of ethanol in mice. The compounds selected will firstly be put through a thermoregulation assay as a screen for potential cannabinoid receptor activity. Thermoregulation will be used as a screen because of the well-established hypothermic effects seen with the use of cannabinoid ligands. This assay was done using glass radiotelemetry probes that were surgically implanted in each mouse, which monitor core temperature in response to drug administration. […] This screen does indeed confirm the in vivo cannabinoid activity of TV-5-249 and TV-6-41 and it also illustrates the evident antagonist effects against agonist induced hypothermia.

For `CCCCn1cc(C(=O)c2cccc3ccccc23)c2cccc(O)c21` [Compound M4], the “JWH-018-induced hypothermia blunted by co-administration, core body temperature” value (NIH Swiss mice [1]; M4 10 mg/kg i.p. co-administered with JWH-018 3 mg/kg i.p.) was 33.09+/−0.70 °C, the “change in body temperature, given alone” value (NIH Swiss mice [1]; M4 10 mg/kg, i.p., alone) was “no significant change in body temperature” and the “antagonism of JWH-018-induced analgesia” value (NIH Swiss mice [2]) was “no difference”. For the same molecule, the “inhibition of cAMP production relative to vehicle, concentration effect curve” value (hCB2Rs; 10 μM forskolin, n=1) was 81%, the “inhibition of intracellular cAMP production, single concentration” value (hCB2Rs; 10 μM, 30 μM forskolin) was 48% and the “potency (IC50) of inhibition of intracellular cAMP production” value (hCB2Rs; CHO-hCB2R cells) was “nanomolar potency”. For the same molecule, the “antagonism of JWH-018-induced locomotor suppression” value (NIH Swiss mice [3]) was “no difference”, the “antagonism of JWH-018-induced catalepsy” value (NIH Swiss mice [4]) was “no difference” and the “antagonism of generalization of JWH-018 to THC (THC-appropriate responding)” value [5] was “No change in THC-appropriate responding”. The “inhibition of adenylyl cyclase activity, reversed by O-2050 (1 μM)” value ([6]; M4 1 μM) was “inhibited activity of the downstream intracellular effector adenylyl cyclase”, the IC50 ([6]; Neuro2A cells) was 225 nM and the “inhibition of AC-activity via CB1Rs, concentration-effect” value ([6]; Neuro2A cells) was 50-60%.

With `CCCCn1cc(C(=O)c2cccc3ccccc23)c2ccccc21` [JWH-073, (1-butyl-1H-indole-3-yl)-1-naphthalenyl-methanone] the “minimum core body temperature recorded” value (NIH Swiss mice [1]; 10 mg/kg, i.p.) was 29.74±1.44 °C, the “time to maximal core body temperature reduction” value (NIH Swiss mice [1]; 10 mg/kg, i.p.) was 54.17 ± 5.23 min and the hypothermic effect (mice) was “profound hypothermic effect”.
